Assay results as given in patent US8163909B2, “Substituted hydroxyethyl amine compounds as beta-secretase modulators and methods of use” (Amgen Inc., priority 2007, dated 2012).
pIC50: −log10 of the molar value.

Assays:
CYP3A4 (CYP3A) = CYP3A4 (CYP3A) (Homo sapiens, UniProt P08684); experiment: in vitro; conditions: microsomes, pH 7.4;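 note: inhibition of CYP3A-mediated 1-hydroxymidazolam formation after 10 min incubation with NADPH, quantified by HPLC MS relative to metabolite produced without test compound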
CYP2D6 = CYP2D6 (Homo sapiens, UniProt P10635); experiment: CYP2D6 inhibition assay (bufuralol, pooled human liver microsomes); conditions: 2D6 IC50, CYP enzyme inhibition
[1] = Microsomal stability assay, human liver microsomes; conditions: human liver microsomal data;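 note: pooled human liver microsomes at 0.25 mg/mL with 1 µM compound and NADPH at 37 °C, pH 7.4, for 30 min, unchanged parent quantified by LC-MS/MS against the 0 min sample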
[2] = test system: Aβ40 in conditioned medium of cells stably expressing Amyloid Precursor Protein (APP); experiment: In vitro BACE cell-based assay (Aβ40 in conditioned medium, sandwich ELISA); conditions: Homo sapiens, HEK293, Table 2; HEK cells; read-out: HEK cell assay;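 note: compounds added as a dilution series, secreted peptide quantified by europium time-resolved fluorescence readout, potency fitted from percent of control versus compound concentration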
[3] = molecular target: Beta Secretase enzyme (BACE) (Homo sapiens, UniProt P56817); experiment: In vitro enzymatic BACE FRET (fluorescence resonance energy transfer) assay; format: biochemical; conditions: Table 2; read-out: BACE1 FRET assay;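 note: fluorescence read after 1 h with 50 nM quenched peptide substrate spanning the BACE cleavage site, in pH 4.2 acetate buffer containing 10% DMSO and nonionic detergent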
[4] = Microsomal stability assay, rat liver microsomes; conditions: rat liver microsomal data;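 note: rat liver microsomes (0.25 mg/mL) with about 1 µM compound plus 1 mM NADPH, pH 7.4, 37 °C for 30 min, parent left measured by LC-MS/MS against 0 min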

Sequence of Beta Secretase enzyme (BACE) (P56817 46-501): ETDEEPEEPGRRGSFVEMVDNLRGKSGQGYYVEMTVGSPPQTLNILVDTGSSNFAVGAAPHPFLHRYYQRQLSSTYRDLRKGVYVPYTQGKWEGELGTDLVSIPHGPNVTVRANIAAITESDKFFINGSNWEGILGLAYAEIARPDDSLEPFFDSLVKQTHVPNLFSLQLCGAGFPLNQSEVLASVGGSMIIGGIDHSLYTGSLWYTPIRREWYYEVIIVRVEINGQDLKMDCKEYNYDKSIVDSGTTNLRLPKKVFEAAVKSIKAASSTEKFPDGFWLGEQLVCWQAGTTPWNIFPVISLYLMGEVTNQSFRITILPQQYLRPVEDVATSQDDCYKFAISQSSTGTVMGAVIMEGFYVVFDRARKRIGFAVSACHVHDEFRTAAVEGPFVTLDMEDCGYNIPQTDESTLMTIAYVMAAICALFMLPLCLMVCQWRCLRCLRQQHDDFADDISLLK
Sequence of CYP3A4 (CYP3A) (P08684 2-503): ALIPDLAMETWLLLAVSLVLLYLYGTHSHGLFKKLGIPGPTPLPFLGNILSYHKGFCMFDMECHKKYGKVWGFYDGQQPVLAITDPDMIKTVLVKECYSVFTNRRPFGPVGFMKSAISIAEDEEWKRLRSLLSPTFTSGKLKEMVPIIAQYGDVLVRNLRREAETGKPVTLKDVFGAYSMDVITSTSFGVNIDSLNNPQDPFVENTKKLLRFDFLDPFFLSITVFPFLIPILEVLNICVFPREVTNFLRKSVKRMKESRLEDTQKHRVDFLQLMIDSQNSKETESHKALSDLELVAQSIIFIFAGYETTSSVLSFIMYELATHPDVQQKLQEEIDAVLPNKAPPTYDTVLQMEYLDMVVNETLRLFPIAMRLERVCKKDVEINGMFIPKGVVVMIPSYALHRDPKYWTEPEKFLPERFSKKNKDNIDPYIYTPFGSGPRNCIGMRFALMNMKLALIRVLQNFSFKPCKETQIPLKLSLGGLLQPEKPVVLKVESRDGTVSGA
Sequence of CYP2D6 (P10635 whole entry): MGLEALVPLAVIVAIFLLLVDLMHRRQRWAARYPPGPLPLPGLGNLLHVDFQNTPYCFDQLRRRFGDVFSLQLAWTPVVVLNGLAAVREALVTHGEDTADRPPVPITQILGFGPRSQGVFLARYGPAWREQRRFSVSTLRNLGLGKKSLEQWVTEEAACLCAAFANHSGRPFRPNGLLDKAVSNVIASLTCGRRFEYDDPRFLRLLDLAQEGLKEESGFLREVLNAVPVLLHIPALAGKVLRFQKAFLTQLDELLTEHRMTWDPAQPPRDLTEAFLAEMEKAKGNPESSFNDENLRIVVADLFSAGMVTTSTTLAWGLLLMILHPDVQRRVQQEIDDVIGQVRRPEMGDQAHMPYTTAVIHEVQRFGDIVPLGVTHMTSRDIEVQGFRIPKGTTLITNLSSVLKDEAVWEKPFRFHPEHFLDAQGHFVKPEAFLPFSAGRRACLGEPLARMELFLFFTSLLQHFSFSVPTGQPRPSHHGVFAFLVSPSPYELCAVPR

Row | Compound | pIC50 (CYP3A4 (CYP3A)) | pIC50 (CYP2D6) | HLM [1] [µL/min/mg] | pIC50 [2] | pIC50 [3] | RLM [4] [µL/min/mg]
1 | COCC(=O)N[C@@H](Cc1cc(F)cc(F)c1)[C@H](O)CN[C@H]1CC2(CCC2)Oc2c1cc(CC(C)C)cc2-n1ccnc1 [compound 458] | 7.00 | 6.05 | 25.5 | 7.92 | 7.77 | 188.5
2 | CO[C@H](C)C(=O)N[C@@H](Cc1cc(F)cc(F)c1)[C@H](O)CN[C@H]1CC2(CCC2)Oc2c(-c3nccs3)cc(CC(C)C)cc21 [compound 459] | 6.40 | 4.99 | 399 | 7.34 | 8.40 | 399
3 | COCC(=O)N[C@@H](Cc1cc(F)cc(F)c1)[C@H](O)CN[C@H]1CC2(CCC2)Oc2c(-c3nccs3)cc(CC(C)C)cc21 [compound 460] | 6.10 | 5.41 | 775 | 7.55 | 9.00 | 775
4 | COCC(=O)N[C@@H](C[C@@H]1CCOC1)[C@H](O)CN[C@H]1CC2(CCC2)Oc2ncc(CC(C)(C)C)cc21 [compound 462] | 5.07 | 4.77 | 107 | 6.19 | 6.36 | 68
5 | COCC(=O)N[C@@H](Cc1cc(F)cc(F)c1)[C@H](O)CN[C@H]1CC2(CCC2)Oc2c(-c3nccs3)cc(CC(C)(C)C)cc21 [compound 463] | 5.96 | 5.14 | 682 | 7.32 | 8.52 | 662
6 | COCC(=O)N[C@@H](Cc1cc(F)cc(F)c1)[C@H](O)CN[C@H]1CC2(CCC2)Oc2c(Br)cc(CC(C)(C)C)cc21 [compound 464] | 5.82 | 4.94 | 463 | 7.04 | 8.40 | 364
7 | CC(=O)N[C@@H](Cc1cc(F)cc(F)c1)[C@H](O)CN[C@H]1CC2(CCC2)Oc2c1cc(CC(C)(C)C)nc2-n1ccnc1 [compound 465] | 7.00 | 6.00 | 18.5 | 7.49 | 7.72 | 51.5
8 | CC(=O)CC(=O)N[C@@H](Cc1cccc(F)c1)[C@H](O)CN[C@H]1CC2(CCC2)Oc2ncc(CC(C)(C)C)cc21 [compound 466] | 5.92 | 5.05 | 296 | 8.10 | 8.40 | 165
9 | CC(=O)C(C)(C)C(=O)N[C@@H](Cc1cccc(F)c1)[C@H](O)CN[C@H]1CC2(CCC2)Oc2ncc(CC(C)(C)C)cc21 [compound 467] | 6.40 | 5.14 | 399 | 6.68 | 7.20 | 292
10 | COCC(=O)N[C@@H](Cc1ccc(F)cc1)[C@H](O)CN[C@H]1CC2(CCC2)Oc2nc(C)c(CC(C)(C)C)cc21 [compound 468] | 6.30 | 5.02 | 736 | 6.97 | 7.01 | 662
11 | CC(=O)N[C@@H](C[C@H]1CCOC1)[C@H](O)CN[C@H]1CC2(CCC2)Oc2ncc(CC(C)(C)C)cc21 [compound 469] | 4.79 | ≤ 4.57 | 60 | 6.79 | 6.86 | 35
12 | COCC(=O)N[C@@H](Cc1cccc(C#N)c1)[C@H](O)CN[C@H]1CC2(CC(F)(F)C2)Oc2ncc(CC(C)(C)C)cc21 [compound 470] | 5.96 | 5.24 | 579 | 7.85 | 8.40 | 560
13 | CO[C@H](C)C(=O)N[C@@H](Cc1cccc(C#N)c1)[C@H](O)CN[C@H]1CC2(CC(F)(F)C2)Oc2ncc(CC(C)(C)C)cc21 [compound 471] | 5.96 | 4.99 | 569 | 7.92 | 8.40 | 536
